One test has as its system cyclooxygenase. The experiment in a line: ARBC whole cell cyclooxygenase assay (PGF2α formation in RBL-1 cells, RIA). The following applies: @ 10 μM; inhibition of PGF2α formation, RBL-1 cells stimulated with calcium ionophore A23187. Type of test: cell-based, rat. The procedure: (§1) ARBL/ARBC Whole Cell 5-Lipoxygenase and Cyclooxygenase Assays The rat basophilic leukemia cell line (RBL-1) was obtained from the American Type Culture Collection (Rockville, Md.). Radioimmunoassay (RIA) kits of LTB4 and PGF2.sbsb.α were obtained from Amersham (Arlington Heights, Ill.) and Seragen (Boston, Mass.), respectively. RBL-1 cells are grown in suspension culture in Eagle's minimum essential medium supplemented with 12% fetal bovine serum at 37° C. in an incubator supplied with air-5% carbon dioxide. Cells are harvested by centrifugation. They are washed with cold phosphate buffered saline pH 7.4 (PBS; NaCl, 7.1 g; Na2 HPO4, 1.15 g; KH2 PO4, 0.2 g; and KCl, 0.2 g/l). Cells are finally suspended in PBS containing 1.0 mM calcium at a density of 2×10^6 cells/mi. Cells are incubated with and without test agent (in DMSO) (1% DMSO is without effect on arachidonic acid metabolism) for ten minutes at room temperature. Calcium ionophore A23187 (5 μM) is added and cells are incubated for seven minutes at 37° C. The reaction is stopped by chilling the tubes on ice for ten minutes. Cells are separated by centrifugation and the supernatant is stored at -20° Aliquots (100 μl) are analyzed for LTB4 and PGF2.sbsb.α using radioimmunoassay kits as provided by the supplier. […]

Another test relates to 5-lipoxygenase. The experiment in a line: ARBL whole cell 5-lipoxygenase assay (LTB4 formation in RBL-1 cells, RIA). The settings on record: @ 10 μM; inhibition of LTB4 formation, RBL-1 cells stimulated with calcium ionophore A23187. Type of test: cell-based, rat. As for the experimental part: as §1

In the case of `CSc1nnc(-c2nc(C(C)(C)C)c(O)c(C(C)(C)C)n2)s1` [Example 13, 5-[4,6-Bis(1,1-dimethylethyl)-5-hydroxy-2-pyrimidinyl]-2-thiomethoxy-1,3,4-3H-thiadiazole], the ARBC with cyclooxygenase is on record as 85%. Further, the ARBL in the test on 5-lipoxygenase was found to be 93%.
`CC(C)(C)c1nc(C#N)nc(C(C)(C)C)c1O` [Example 19, 4,6-Bis.(1,1-dimethylethyl)-5-hydroxy-2-pyrimidine carbonitrile]: the ARBC with cyclooxygenase is recorded as 45%. Further, the ARBL in the test on 5-lipoxygenase turned out to be 70%.

The values are drawn from patent US5356898A, “Substituted 4,6-di-tertiary-butyl 5-hydroxy-pyrimidines” (Warner-Lambert Company, priority 1993, dated 1994).
